Results taken from patent US10889552B2, “Dihydroxybenzamide compound having HSP90 inhibitory activity or pharmaceutically acceptable salt thereof, and medical use thereof” (priority 2016, dated 2021).

What was measured:
H1975 cells [1] = assay: Cell viability by MTS analysis in H1975 cells resistant to Gefitinib; format: cell-based; conditions: H1975, cultured for 3 days
Description: To confirm the cell viability according to the concentration of the compound synthesized in H1975 cells (ATCC) resistant to Gefitinib, MTS [3-(4,5-dimethylthiazol-2-yl)-5-[…]carboxymethoxyphenyl)-2-(4-sulfophenyl)-2H-terazolium, inner salt] analysis was performed. When the cells were cultured so as to occupy 80% of the bottom of the culture dish, the cells were detached and diluted with RPMI 1640 medium to a concentration of 1.5×10^3 cells/well. Each 100 μL of the suspension was added to each well of a 96-well plate and cultured for 14 hours.

[2] = system: HSP90 client protein (Her2, EGFR, Met, c-Raf, Akt), HSP70; assay: Analysis of protein expression (western blot) in H1975 cells, Compound 21f; format: cell-based
Description: Compound 21f having good efficacy was selected and HSP90 client protein proliferation effect in the same cell line was confirmed, in which the HSP90 client proteins were Her2 (human EGFR-related 2), EGFR (epidermal growth factor receptor), Met and c-Raf were used.
H1975 cells resistant to Gefitinib were cultured in a medium supplemented with 10% fetal bovine serum (FBS) for 24 hours, and the cells were detached, harvested and diluted with a RPMI 1640 medium so as to be 5×10^5 cells/well. Each 5 mL of the suspension was added to […] culture dish and cultured for 24 hours. Then, the medium was changed to the culture solution treated with each compound of concentration (21f 0, 0.05, 0.1, 0.5 or 1 μM, GA: 1 μM), and cultured for 24 hours. After culture, the cells were harvested and centrifuged at 1300 rpm for 5 minutes at 4° C., and the supernatant was removed. The pellet was washed with phosphate buffered saline, centrifuged once again under the same conditions, and the supernatant was removed. Lysis buffer was added to the remaining pellet and lysed by vortexing at 5 minute intervals for 30 minutes. The supernatant was separated by centrifugation at 16000 rcf for 4 minutes at 4° C., and proteins were quantified using BCA ([…]) kit. SDS-PAGE (sodium dodecylsulfate-polyacrylamide gel electrophoresis) was performed using 10, 12% running gel and 4% stacking gel (10 mA per gel). The separated proteins were transferred to an immunoblot PVDF, membrane (polyvinylidene fluoride membrane) at 100 V for 75 minutes. The membranes were blocked with 5% skim milk solution for 2 hours and then added a primary antibody diluted in the ratio of 1:750-1,000 in 0.1% tween-20 solution and reacted at 4° C. for 12 hours. After washing three times with TBS-T (Tris-buffered saline and Tween 20 containing Tween 20) and detected with an image analyzer using ECL (enhanced chemiluminescence) solution.

Log P = format: physicochemical; conditions: text: measured values of Log P
Description: All experimental data were analyzed using Prism software (version 5.0, Graphpad Software, San Diego, Calif.). In addition, tPSA (Topological Polar Surface Area) calculated using Cherndraw software and the measured values of Log P are shown in Tables 1 and 2 below.

H1975 = assay: Cell proliferation / survival inhibition by MTS analysis (H1975); format: cell-based; conditions: for Inhibition rate at 10 μM (%) / Inhibition rate at 30 μM (%): test system not given
Description: Sk-Br3 (Korean cell line bank), a breast cancer cell, and H1975 cell (ATCC), a nonsmall cell lung cancer, were cultured in RPMI 1640 containing 25 mM HEPES (4-(2-hydroxyethyl)-1-piperazineethanesulfonic acid) and RPMI 1640 containing L-glutamine (containing streptomycin ([…]), penicillin (100 units/mL) and 10% fetal bovine serum (FBS)).
Next, non-metastatic lung cancer cells were treated with Compound 17 and the cell proliferation rate or cell survival rate was measured by MTS [3-(4,5-dimethylthiazol-2-yl)-5-(3-carboxymethoxyphenyl)-1-2H-tetrazolium, inner salt] analysis.
Cells were dispensed in 96-well plates at 3000 cell/well (Sk-Br3) and 2000 cell/well (H1975), and 100 μL of the medium was added per well and then was incubated overnight.
Cell proliferation was evaluated using the Promega Cell Titer 96 Aqueous One Solution cell proliferation assay.
After compound and cell culture, 20 μL of assay substrate solution was added to each well and incubated at 37° C. for an additional 1 hour.
Cell proliferation was confirmed by measuring the absorbance at 490 nm using a microplate reader (Tecan Infinite F200 Proplate reader).

H1975 cells [3] = assay: H1975 colony formation inhibitory effect (clonogenic assay); format: cell-based; conditions: at 0.05 µM), 3 weeks, FIG. 3
Description: H1975 cells were treated with Compound 17 at a concentration of 0.05 or 0.5 μM for 3 weeks and then clogenic assay was performed.
First, RPMI1640 medium (10% FBS, 0.48% agar) was added to a 6-well plate and hardened, and then, 10000 cells (H1975) were dispensed in a medium containing RPMI1640 medium (10% FBS, 0.33% agar) and solidified. After solidification, the cells were treated with compound at a concentration of 0.05 or 0.5 […] for 24 hours, followed by culturing for 3 weeks, and then colony formation was confirmed using a crystal violet staining solution.

[4] = system: HSP90 client protein of EGFR, Her2, Met, Akt, c-Raf, Cpk4; assay: Protein expression analysis (western blot) after Compound 17 treatment; format: cell-based; conditions: 0.05, 0.1, 0.5 or 1 μM, 24 hours, FIG. 4
Description: Next, the cells were dispensed into 100 mm culture dishes (1×10^6/dish) and adhered to the bottom surface overnight. Compound 17 at a concentration of 0.05, 0.1, 0.5 or 1 μM was added to the cells, followed by further culture for 24 hours.
In addition, cells were treated with DMSO (1%) or geladinamycin (1 μM) as a control and cultured for 24 hours.
The cultured cells were harvested and lysed in ice-cold lysis buffer (23 mM Tris-HCl pH 7.6, 130 mM NaCl, 1% NP40, […], 0.1% SDS (sodium dodecylsulfate)), and 30 μg of the lysate was separated by SDS-PAGE (SDS-polyacrylamide gel electrophoresis) and transferred to a PVDF membrane (Bio-Rad).
Membranes were blocked with TBST (Tween 20 containing iris-Buffered Saline) containing 5% skim milk and incubated with the respective primary antibodies [EGFR (Epidermal growth factor receptor), Her2 (human epidermal growth factor receptor type 2), Met, N-cadherin, E-cadherin, α-tubulin, acetyl-α-tubulin, protein kinase B (Akt), c-Raf, Cdk4 (Cyclin-dependent kinase 4), HSP90, HSP70, PARP (Poly […] Polymerase), caspase 3, cleaved caspase 3, truncated caspase 8, B-cell lymphoma 2 (Bcl-2). Bax or β-Actin, purchased from Cell Signaling Technology (USA)].
After binding to a secondary antibody conjugated with horseradish peroxidase, the protein was visualized by ECL (electrochemiluminescence, GE healthcare, USA).

5-chloro-2,4-dihydroxy-n-methyl-n-(3-methylbenzyl)benzamide [Compound 14i]
EC50 (H1975 cells [1]): 47.5 µM

CCCNC(=O)c1ccc(CN(C)C(=O)c2cc(C(C)C)c(O)cc2O)cc1 [Compound 21f, 2,4-dihydroxy-5-isopropyl-n-methyl-n-(4-(propylcarbamoyl)benzyl) benzamide]
proliferation (expression) of the HSP90 client protein ([2]; 0, 0.05, 0.1, 0.5 or 1 μM, 24 hours, FIG. 5): inhibited in a concentration-dependent manner | concentration at which Akt expression was significantly decreased ([2]; H1975, 24 hours): 0.5 µM | concentration at which EGFR expression was significantly decreased ([2]; H1975, 24 hours): 0.1 µM | concentration at which Her2 expression was significantly decreased ([2]; H1975, 24 hours): 0.5 µM | concentration at which Met expression was significantly decreased ([2]; H1975, 24 hours): 0.5 µM | concentration at which expression of HSP70 was increased ([2]; H1975, 24 hours): 0.5 µM

CC(=O)N1CCN(C(=O)c2cc(Cl)c(O)cc2O)CC1 [Compound 11f, 1-(4-(5-chloro-2,4-dihydroxybenzol)piperazin-1-yl)ethanone]
LogP (Log P): 0.25 | Inhibition rate at 10 μM (%) (H1975): 0% | Inhibition rate at 30 μM (%) (H1975): 10.5%

Cc1ccc(CN(C)C(=O)c2cc(Cl)c(O)cc2O)cc1 [Compound 16b, 5-chloro-2,4-dihydroxy-n-methyl-n-(4-methylbenzyl)benzamide]
EC50 (H1975 cells [1]): 34.3 µM

COc1ccc(CN(C)C(=O)c2cc(Cl)c(O)cc2O)cc1OC [Compound 14d, 5-chloro-n-(3,4-dimethoxybenzyl)-2,4-dihydroxy-n-methylbenzamide]
EC50 (H1975 cells [1]): 33.4 µM

COc1ccc(CN(C)C(=O)c2cc(Cl)c(O)cc2O)cc1 [Compound 14c, 5-chloro-2,4-dihydroxy-n-(4-methoxybenzyl)-n-methylbenzamide]
EC50 (H1975 cells [1]): 16.7 µM

CCCNC(=O)c1ccc(CN(C)C(=O)c2cc(Cl)c(O)cc2O)cc1 [Compound 21c, 5-chloro-2,4-dihydroxy-n-methyl-n-(4-(propylcarbamoyl)benzyl)benzamide]
EC50 (H1975 cells [1]): 20.8 µM

CC(C)c1cc(C(=O)N2CCN(C)CC2c2ccccc2)c(O)cc1O (centres unmarked) [Compound 17, (2,4-dihydroxy-5-isopropylphenyl)(4-methyl-2-phenylpiperazin-1-yl)methanone]
colony formation of H1975 (H1975 cells [3]): inhibited the colony formation | HSP protein inhibition / degradation of HSP90 client protein [4]: inhibited HSP protein in concentration-dependent manner | proliferation rate of the cells (H1975; 0-70 μM, 1, 2 and 3 days, FIG. 2A): inhibited in a concentration-dependent manner

5-chloro-2,4-dihydroxy-n-methyl-n-(2-methylbenzyl)benzamide [Compound 16a]
EC50 (H1975 cells [1]): 49.3 µM

O=C(c1cc(Cl)c(O)cc1O)N1CCCCC1 [Compound 11b]
LogP (Log P): 1.69 | Inhibition rate at 10 μM (%) (H1975): 7.6% | Inhibition rate at 30 μM (%) (H1975): 26.3%

COc1cc(CN(C)C(=O)c2cc(Cl)c(O)cc2O)c(Cl)c(OC)c1OC [Compound 14g, 5-chloro-n-(2-chloro-3,4,5-trimethoxybenzyl)-2,4-dihydroxy-n-methylbenzamide]
EC50 (H1975 cells [1]): 33.8 µM

CCNC(=O)c1ccc(CN(C)C(=O)c2cc(Cl)c(O)cc2O)cc1 [Compound 21b, 5-chloro-n-(4-(ethylcarbamoyl)benzyl)-2,4-dihydroxy-n-methylbenzamide]
EC50 (H1975 cells [1]): 21.7 µM
